Data published in publication PMC10034449, “FDA-approved Abl/EGFR/PDGFR kinase inhibitors show potent efficacy against pandemic and seasonal influenza A virus infections of human lung explants” (iScience, 2023).
“And” between values parts separate entries of the source, which are not always exact repeats. Identical values can stand only once.

Experiments:
[1] = system: NL11 viral polymerase activity; type: cell-based, influenza A virus
[2] = system: NL09 or NL11; type: cell-based, influenza A virus
[3] = system: A/Netherlands/602/09 (H1N1) replication complex (PB2, PB1, PA, NP); type: cell-based, influenza A virus
[4] = system: NL09 or NL11; type: cell-based, influenza A virus; remark: listed apart in the source
[5] = system: NL09 viral polymerase activity; type: cell-based, influenza A virus
[6] = system: human precision-cut lung slices (hPCLS); test: Ex vivo cytotoxicity in hPCLS (LDH-Glo, LDH release); conditions: 10xmax: DF 50 μM, BO 50 μM, SA 1.25 μM, up to 144 h
[7] = system: NFkBpS536 (NFkB p65); type: cell-based, human
[8] = system: PDGFRα vs PDGFRβ; set-up: method as in PMID 19922818; conditions: cited from earlier work
[9] = system: A/NL/213/03 (H3N2) replication complex (PB2, PB1, PA, NP); type: cell-based, influenza A virus
[10] = system: PAK3; conditions: 0.48 μM; cited from earlier work

| Molecule | % Luminescence (relative to untreated / normalized to GFP) [1] | effect on viral entry / virion localization [2] | % Luminescence (relative to untreated / normalized to GFP) [3] | significance of titer reduction over the infection [4] | viral titer reduction [4] | other results |
| --- | --- | --- | --- | --- | --- | --- |
| CC#CC(=O)N1CCC[C@H]1c1nc(-c2ccc(C(=O)Nc3ccccn3)cc2)c2c(N)nccn12 [AC, Acalabrutinib] | 67% | No significant changes were detectable | 82% | only significant at 24 and 48 hpi |  |  |
| COc1cc(Nc2c(C#N)cnc3cc(OCCCN4CCN(C)CC4)c(OC)cc23)c(Cl)cc1Cl [BO, Bosutinib] |  | no virus was detected |  | significant throughout the infections |  | F-actin network [2]: not detectable |
| CNC(=O)c1ccc(Nc2ncc(C(F)(F)F)c(NCc3nccnc3N(C)S(C)(=O)=O)n2)cc1 [DF, Defactinib] |  | significant retention at the membrane and cell periphery |  | only significant at 24 and 48 hpi | at least 10 fold | reduction of polymerase reporter activity [5]: 20%; cytotoxicity (LDH release) relative to positive control [6]: > 20%; reduction of polymerase reporter activity [1]: 13%; NFkB p65 phosphorylation, pNFkB p65 / panNFkB p65 ratio (rel. to untreated) [7]: 64% and 68% |
| C=CC(=O)N1CCC[C@@H](n2nc(-c3ccc(Oc4ccccc4)cc3)c3c(N)ncnc32)C1 [IB, Ibrutinib] |  | significant retention at the membrane and cell periphery |  | significant throughout the infections | more than 1,000 fold |  |
| Cc1cn(-c2cc(NC(=O)c3ccc(C)c(Nc4nccc(-c5cccnc5)n4)c3)cc(C(F)(F)F)c2)cn1 [NI, Nilotinib] | 62% and 45% | No significant changes were detectable | 73% and 61% | significant throughout the infections | more than 1,000 fold | % Luminescence (relative to untreated / normalized to GFP) [5]: 50%; selectivity for PDGFRα than PDGFRβ [8]: > 25 fold; % Luminescence (relative to untreated / normalized to GFP) [9]: 71% and 64% |
| CN1CCN(CCOc2cc(OC3CCOCC3)c3c(Nc4c(Cl)ccc5c4OCO5)ncnc3c2)CC1 [SA, Saracatinib] | 53% | No significant changes were detectable | 68% |  |  | cytotoxicity (LDH release) relative to positive control [6]: > 20%; % Luminescence (relative to untreated / normalized to GFP) [9]: 66% |
| CCN(CC)CCNC(=O)c1c(C)[nH]c(/C=C2\C(=O)Nc3ccc(F)cc32)c1C [sunitinib] |  |  |  |  |  | effect on PAK3 activity [10]: not even a 30-fold higher concentration (0.48 μM) has an effect |
| poly(IC) |  |  |  |  |  | induction of NFkBpS536 [7]: induced NFkBpS536 |
